Patent US9938273B2 (Plexxikon Inc., priority 2015, dated 2018)

Columns and labels:
[1] = tested on: MOLM-14 D835Y cells, FLT3 ITD and FLT3 D835Y; assay: Cell proliferation assay (CellTiter-Glo), MOLM-14 D835Y; format: cell-based; conditions: Homo sapiens, 72 h, 3d-Growth, GMean
Procedure, shortened: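 MOLM-14 AML cells (endogenous FLT3 ITD, AC220-selected D835Y or F691L variants) or murine Ba/F3 expressing full-length FLT3 ITD/D835Y, without IL-3 for FLT3 dependence, 1×10^4 cells/well. Eight-point 1:3 series from 1 μM final, 0.2% DMSO, 3 days at 37 °C. CellTiter-Glo luminescence (ATP) gave IC50.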

[2] = target: T1, FLT3-ITD (Homo sapiens, UniProt P36888); assay: AlphaScreen kinase assay with recombinant enzyme, FLT3-ITD; format: biochemical; conditions: 8pt; read-out: FLT3_ITD 8pt: IC50
T1 sequence (P36888 1-993): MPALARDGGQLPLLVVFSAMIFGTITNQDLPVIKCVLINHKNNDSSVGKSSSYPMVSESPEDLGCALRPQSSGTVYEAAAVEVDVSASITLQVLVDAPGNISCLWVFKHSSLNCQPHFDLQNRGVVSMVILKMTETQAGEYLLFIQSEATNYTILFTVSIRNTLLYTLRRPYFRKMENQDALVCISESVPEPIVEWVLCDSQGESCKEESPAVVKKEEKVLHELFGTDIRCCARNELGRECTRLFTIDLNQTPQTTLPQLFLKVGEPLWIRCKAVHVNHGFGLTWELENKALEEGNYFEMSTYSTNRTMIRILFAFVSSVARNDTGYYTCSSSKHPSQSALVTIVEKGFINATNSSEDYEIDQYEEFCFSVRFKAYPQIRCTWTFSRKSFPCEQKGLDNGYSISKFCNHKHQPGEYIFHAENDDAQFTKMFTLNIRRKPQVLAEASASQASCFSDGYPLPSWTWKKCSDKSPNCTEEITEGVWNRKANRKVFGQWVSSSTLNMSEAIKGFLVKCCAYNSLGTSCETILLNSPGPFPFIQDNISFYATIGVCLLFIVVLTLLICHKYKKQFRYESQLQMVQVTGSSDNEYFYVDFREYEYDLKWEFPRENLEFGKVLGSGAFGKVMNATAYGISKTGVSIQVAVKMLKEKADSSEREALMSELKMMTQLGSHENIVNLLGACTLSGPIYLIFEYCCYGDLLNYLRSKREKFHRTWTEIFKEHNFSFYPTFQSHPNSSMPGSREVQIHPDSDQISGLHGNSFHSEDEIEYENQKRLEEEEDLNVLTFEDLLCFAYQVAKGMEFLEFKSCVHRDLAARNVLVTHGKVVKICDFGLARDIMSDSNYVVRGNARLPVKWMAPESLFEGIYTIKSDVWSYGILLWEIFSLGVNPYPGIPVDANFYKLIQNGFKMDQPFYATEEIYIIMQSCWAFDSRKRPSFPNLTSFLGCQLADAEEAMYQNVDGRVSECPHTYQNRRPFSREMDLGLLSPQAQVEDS
Description: In order to determine the effect of compounds on FLT3 catalytic activity, kinase assays using recombinant enzymes and AlphaScreen® technology have been established. The catalytic activity of c-kit activity was also measured to determine selectivity of the compounds. When the kinases are catalytically active, they phosphorylate a biotinylated peptide substrate on tyrosine residues. Using AlphaScreen® technology, the ability of the compounds to affect the catalytic activity of the kinases can be measured quantitatively. The peptide substrate is immobilized by the AlphaScreen® Streptavidin Donor beads and, upon phosphorylation by a tyrosine kinase, can bind to AlphaScreen® Anti-Phosphotyrosine (PY20) Acceptor beads. Upon excitation of these beads with laser light at 680 nm, singlet oxygen is produced. This singlet oxygen is rapidly quenched, unless the AlphaScreen® Anti-Phosphotyrosine (PY20) Acceptor beads are in close proximity, in which case a proximity signal can be measured at 580 nm. In the presence of catalytic activity, there is a very strong proximity signal. Selective kinase inhibitors affect a decrease in this proximity signal through a decrease in tyrosine phosphorylation of the peptide substrate.
The assay was performed as summarized below.
Poly (Glu4-Tyr) Peptide, biotin conjugate [Biotin-GG(EEEEY)10EE] (SEQ ID NO: 4)
Final concentration=30 nM
Final concentration for IC50 determination=10 μM (FLT3-D835Y or FLT3-ITD) or 100 μM (c-KIT)
AlphaScreen® Phosphotyrosine (PY20) Assay Kit
Final concentration=10 μg/mL
Dilute compounds in DMSO to 20× final concentration.
Add 1 μl of compound to each well of 384 well reaction plate (Perkin Elmer #6005359).
Mix enzyme and Poly (Glu4-Tyr) Peptide substrate at 1.33× final concentration in assay buffer.
Mix ATP at 5× final concentration in assay buffer.
Add 15 μL enzyme/substrate mixture to the reaction plate.
Add 4 μL of ATP to the reaction plate.
Mix Streptavidin Donor beads at 6× final concentration in Stop/Detection buffer.
Add 5 μL Streptavidin Donor beads to the reaction plate. Centrifuge 1 minute, shake to mix, and incubate at room temperature for 20 minutes.
Mix Anti-Phosphotyrosine (PY20) Acceptor beads at 6× final concentration in Stop/Detection buffer.
Add 5 μL Anti-Phosphotyrosine (PY20) beads to the reaction plate.
Centrifuge 1 minute, shake to mix, and incubate at room temperature for 60 minutes.
Read plate on Wallac EnVision™ 2103 Multilabel Reader.

SMILES | IC50 [1] [µM] | IC50 [2] [µM]
N#C[C@H]1CCN(C(=O)c2cccc(-c3cnc4[nH]c(-c5ccccc5)cc4c3)n2)C1 [Compound P-0117, (3S)-1-[6-(2-phenyl-1H-pyrrolo[2,3-b]pyridin-5-yl)pyridine-2-carbonyl]pyrrolidine-3-carbonitrile] | 0.0001 to 10 | 0.0001 to 10
CN[C@@H]1CCN(C(=O)c2ccc(-c3cnc4[nH]c(-c5ccccc5)cc4c3)s2)C1 [Compound P-0106, [(3R)-3-(methylamino)pyrrolidin-1-yl]-[5-(2-phenyl-1H-pyrrolo[2,3-b]pyridin-5-yl)-2-thienyl]methanone] | 0.0001 to 10 | 0.0001 to 10
CC(C)(C#N)NC(=O)c1cccc(-c2cnc3[nH]c(-c4ccccc4)cc3c2)n1 [Compound P-0118, N-(1-cyano-1-methyl-ethyl)-6-(2-phenyl-1H-pyrrolo[2,3-b]pyridin-5-yl)pyridine-2-carboxamide] | 0.0001 to 10 | 0.0001 to 10
CC(C)(C#N)CNC(=O)c1cccc(-c2cnc3[nH]c(-c4ccnc(C5CC5)c4)cc3c2)n1 [Compound P-0152, N-(2-cyano-2-methyl-propyl)-6-[2-(2-cyclopropyl-4-pyridyl)-1H-pyrrolo[2,3-b]pyridin-5-yl]pyridine-2-carboxamide] | 0.0001 to 10 | 0.0001 to 10
N#CCCNC(=O)c1cccc(-c2cnc3[nH]c(-c4ccccc4)c(Br)c3c2)n1 [Compound P-0147, 6-(3-bromo-2-phenyl-1H-pyrrolo[2,3-b]pyridin-5-yl)-N-(2-cyanoethyl)pyridine-2-carboxamide] | 0.0001 to 10 | 0.0001 to 10
N#CC1(CNC(=O)c2cccc(-c3cnc4[nH]c(-c5ccccc5)c(Cl)c4c3)n2)CC1 [Compound P-0148, 6-(3-chloro-2-phenyl-1H-pyrrolo[2,3-b]pyridin-5-yl)-N-[(1-cyanocyclopropyl)methyl]pyridine-2-carboxamide] | 0.0001 to 10 | 0.0001 to 10
Cc1nn(C(C)C)cc1-c1cc2cc(-c3cccc(C(=O)NC(C)(C)C#N)n3)cnc2[nH]1 [Compound P-0178, N-(1-cyano-1-methyl-ethyl)-6-[2-(1-isopropyl-3-methyl-pyrazol-4-yl)-1H-pyrrolo[2,3-b]pyridin-5-yl]pyridine-2-carboxamide] | 0.0001 to 10 | 0.0001 to 10
CC(C)(C#N)CNC(=O)c1cccc(-c2cnc3[nH]c(-c4ccccc4)c(Br)c3c2)n1 [Compound P-0126, 6-(3-bromo-2-phenyl-1H-pyrrolo[2,3-b]pyridin-5-yl)-N-(2-cyano-2-methyl-propyl)pyridine-2-carboxamide] | 0.0001 to 10 | 0.0001 to 10
Cn1cc(-c2cc3cc(-c4cccc(C(=O)NCC(C)(C)C#N)n4)cnc3[nH]2)ccc1=O [Compound P-0155, N-(2-cyano-2-methyl-propyl)-6-[2-(1-methyl-6-oxo-3-pyridyl)-1H-pyrrolo[2,3-b]pyridin-5-yl]pyridine-2-carboxamide] | 0.0001 to 10 | 0.0001 to 10
O=C(c1cccc(-c2cnc3[nH]c(-c4ccccc4)cc3c2)n1)N1CCC(F)(F)C1 [Compound P-0093, (3,3-difluoropyrrolidin-1-yl)-[6-(2-phenyl-1H-pyrrolo[2,3-b]pyridin-5-yl)-2-pyridyl]methanone] | 0.0001 to 10 | 0.0001 to 10
N#CC1(F)CCN(C(=O)c2cccc(-c3cnc4[nH]c(-c5ccccc5)cc4c3)n2)C1 (stereo not shown) [Compound P-0115, 3-fluoro-1-[6-(2-phenyl-1H-pyrrolo[2,3-b]pyridin-5-yl)pyridine-2-carbonyl]pyrrolidine-3-carbonitrile] | 0.0001 to 10 | 0.0001 to 10
N#C[C@@H]1CCN(C(=O)c2cccc(-c3cnc4[nH]c(-c5ccccc5)cc4c3)n2)C1 [Compound P-0122, (3R)-1-[6-(2-phenyl-1H-pyrrolo[2,3-b]pyridin-5-yl)pyridine-2-carbonyl]pyrrolidine-3-carbonitrile] | 0.0001 to 10 | 0.0001 to 10
CC(C)(C#N)NC(=O)c1cccc(-c2cnc3[nH]c(-c4cnn(CCN5CCOCC5)c4)cc3c2)n1 [Compound P-0174, N-(1-cyano-1-methyl-ethyl)-6-[2-[1-(2-morpholinoethyl)pyrazol-4-yl]-1H-pyrrolo[2,3-b]pyridin-5-yl]pyridine-2-carboxamide] | 0.0001 to 10 | 0.0001 to 10
O=C(NC1(C(F)(F)F)CC1)c1cccc(-c2cnc3[nH]c(-c4ccccc4)cc3c2)n1 [Compound P-0156, 6-(2-phenyl-1H-pyrrolo[2,3-b]pyridin-5-yl)-N-[1-(trifluoromethyl)cyclopropyl]pyridine-2-carboxamide] | 0.0001 to 10 | 0.0001 to 10
CC(C)(C#N)NC(=O)c1cccc(-c2cnc3[nH]c(-c4cnn(C5CCNCC5)c4)cc3c2)n1 [Compound P-0187, N-(1-cyano-1-methyl-ethyl)-6-[2-[1-(4-piperidyl)pyrazol-4-yl]-1H-pyrrolo[2,3-b]pyridin-5-yl]pyridine-2-carboxamide] | 0.0001 to 10 | 0.0001 to 10
N#CCCNC(=O)c1cccc(-c2cnc3[nH]c(-c4ccccc4)cc3c2)n1 [Compound P-0099, N-(2-cyanoethyl)-6-(2-phenyl-1H-pyrrolo[2,3-b]pyridin-5-yl)pyridine-2-carboxamide] | 0.0001 to 10 | 0.0001 to 10
N#CC1CCN(C(=O)c2cccc(-c3cnc4[nH]c(C5=CCCCC5)cc4c3)n2)C1 (stereo not shown) [Compound P-0120, 1-[6-[2-(cyclohexen-1-yl)-1H-pyrrolo[2,3-b]pyridin-5-yl]pyridine-2-carbonyl]pyrrolidine-3-carbonitrile] | 0.0001 to 10 | 0.0001 to 10
CC(C)(C#N)NC(=O)c1cccc(-c2cnc3[nH]c(C4=CCNCC4)cc3c2)n1 [Compound P-0182, N-(1-cyano-1-methyl-ethyl)-6-[2-(1,2,3,6-tetrahydropyridin-4-yl)-1H-pyrrolo[2,3-b]pyridin-5-yl]pyridine-2-carboxamide] | 0.0001 to 10 | 0.0001 to 10
Cn1cncc1C#Cc1cc2cc(-c3cccc(C(=O)NC(C)(C)C#N)n3)cnc2[nH]1 [Compound P-0177, N-(1-cyano-1-methyl-ethyl)-6-[2-[2-(3-methylimidazol-4-yl)ethynyl]-1H-pyrrolo[2,3-b]pyridin-5-yl]pyridine-2-carboxamide] | 0.0001 to 10 | 0.0001 to 10
CC1(C)CC=C(c2cc3cc(-c4cccc(C(=O)N5CCC(C#N)C5)n4)cnc3[nH]2)CC1 (stereo not shown) [Compound P-0131, 1-[6-[2-(4,4-dimethylcyclohexen-1-yl)-1H-pyrrolo[2,3-b]pyridin-5-yl]pyridine-2-carbonyl]pyrrolidine-3-carbonitrile] | 0.0001 to 10 | 0.0001 to 10
